Reference: article PMC10799935, “Discovery of a peripheral 5HT2A antagonist as a clinical candidate for metabolic dysfunction-associated steatohepatitis” (Nature Communications, 2024)

Molecular target: 5HT2A (Homo sapiens, UniProt P28223)
Assay: Human 5HT2A inhibition assay (FLIPR calcium 6, 5HT stimulus, stably transfected HEK293 cells)
Assay type: cell-based
Set-up: expressed in transfected cells; host or cells: HEK293
Conditions: HEK293, 10 μM; read-out: % Inhibition at 10 μM (SD)

Chain of 5HT2A (P28223 whole entry): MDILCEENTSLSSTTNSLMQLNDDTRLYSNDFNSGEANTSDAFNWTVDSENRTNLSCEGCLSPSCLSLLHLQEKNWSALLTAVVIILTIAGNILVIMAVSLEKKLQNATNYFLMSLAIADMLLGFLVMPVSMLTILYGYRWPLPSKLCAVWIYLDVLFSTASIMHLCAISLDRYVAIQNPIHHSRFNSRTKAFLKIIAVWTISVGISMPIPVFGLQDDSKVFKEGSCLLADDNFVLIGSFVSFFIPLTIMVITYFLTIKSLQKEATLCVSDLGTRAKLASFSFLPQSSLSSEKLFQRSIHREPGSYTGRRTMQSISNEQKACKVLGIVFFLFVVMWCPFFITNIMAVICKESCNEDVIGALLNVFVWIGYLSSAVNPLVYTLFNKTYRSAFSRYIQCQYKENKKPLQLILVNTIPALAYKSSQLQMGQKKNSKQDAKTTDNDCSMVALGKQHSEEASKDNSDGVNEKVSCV

CC(=O)N1CCC(=C2c3ccc(Cl)cc3CCc3cccnc32)CC1 [Compound 3] showed an inhibition at 10 µM of -1%.
